The results in this text go back to patent US7195783B2, “Hypericin and hypericum extract: specific T-type calcium channel blocker, and their use as T-type calcium channel targeted therapeutics” (FX Life Sciences International GmbH, priority 1999, dated 2007).

For assay [1], the system named is L-type calcium current. The assay can be described thus: L-type calcium current in ventricular cells from baby rats. Particulars: ventricular cells from baby rats (FIG. 7). It is filed as cell-based.
Assay [2] concerns L-type calcium channels. As to the kind of experiment: Whole-cell patch-clamp, L-type calcium current in cultured N1E-115 neuroblastoma cells. The format is cell-based, Mouse. Particulars: cultured N1E-115 cells; hypericin 0.1, 1 and 10 uM (FIG. 1). The protocol: (§1) Mouse neuroblastoma cells (N1E115) were cultured in Dulbecco's modified Eagle's medium (GIBCO) containing 10% fetal bovine serum at 37° C. in a humidified atmosphere of 5% CO2 in air. The medium was changed every 3–4 days. After mechanical agitation, 3×10^4 cells were replanted in 35 mm tissue culture dishes containing 4 ml of bath solution. After cell attachment, the dish was mounted on the stage of an inverted phase-contrast microscope (Nikon) for Ca^2+ channel current recording. These cells expressed predominately T channel currents. In experiments where L channels were specifically sought, the cells were grown and maintained at confluence for 3–4 weeks under the same culture conditions with the addition of 2% (vol/vol) dimethyl sulfoxide. Three to five days before use, the cells were replanted with the same medium. These cells expressed predominately L channel currents. A small number of these cells also expressed T channel currents.
The whole-cell version of the patch-clamp technique was used. […] Since the peak currents measured with 20 mM Ba^2+ as the charge carrier were usually small (about 200 pA), the series resistance compensation was not usually employed. […] For every single-cell recording, stable readings were first obtained for 5 min; the drug was then added to the bath solution. […]
For orientation: The patch-clamp technique gives a direct electrical read-out from membranes.

Assay [3] relates to L-type calcium current. As to the kind of experiment: L-type calcium current in vascular smooth muscle cells (VSMC). It is filed as cell-based. The following applies: vascular smooth muscle cells (FIG. 6).
In assay [4] the test system is T-type calcium channel. As to the kind of experiment: Whole-cell patch-clamp, T-type calcium current in N1E-115 cells. The format is cell-based, Mouse. Particulars: for effect on T-type calcium current: hypericin 0.1 to 10 uM (FIG. 3). The method, then:
as §1
The whole-cell version of the patch-clamp technique was used. The pipettes had resistance of 2–15 M. Membrane current recordings were made with an Axopatch-1C (Axon Instruments) patch-clamp amplifier. All signals were filtered at 1 kHz and stored in the computer. Since the peak currents measured with 20 mM Ba^2+ as the charge carrier were usually small (about 200 pA), the series resistance compensation was not usually employed. If the capacitive transient overlapped with the onset of the inward current, or if the spatial voltage control was inadequate (i.e., NIE-115 cells with long neural outgrowths), the experimental data were rejected. Unless otherwise specified the current-voltage plots were constructed by using the peak values (corrected for leakage) from the original records for both T and L channel currents. The holding membrane potential was fixed at −80 mV when the T channels were under investigation or at […] when the L channels were studied. […] For every single-cell recording, stable readings were first obtained for 5 min; the drug was then added to the bath solution. […]

Entries after “also recorded” stand apart in the source; their conditions may differ.

Consider hypericin, for which the “effect on L-type calcium current” value in assay [1] and in assay [3] was “did not affect” in each case. Also, in assay [2], the “effect on L-type calcium current activity” value was “slight but not significant increase; also recorded: does not significantly affect”. In addition, the “inhibition on T-type calcium current” value in assay [4] (0.15 ug/ml of pure hypericin (FIG. 3)) is given as “less than 10%”. Also, the “effect on T-type calcium current” value in assay [4] is given as “inhibited T-type calcium currents in a dose-dependent manner”; in assay [4] (listed as Hypericin), “dose-dependent inhibitory effect”.
